Assay results published in BindingDB's records for patent WO2022115301 (MERCK SHARP & DOHME LLC, 2022).

What follows are compounds tested against T1, Ceramide glucosyltransferase (Homo sapiens, UniProt Q16739) (assay: UDP-Glo Glucosylceramide Synthase Biochemical Assay).
T1 sequence (Q16739 whole entry): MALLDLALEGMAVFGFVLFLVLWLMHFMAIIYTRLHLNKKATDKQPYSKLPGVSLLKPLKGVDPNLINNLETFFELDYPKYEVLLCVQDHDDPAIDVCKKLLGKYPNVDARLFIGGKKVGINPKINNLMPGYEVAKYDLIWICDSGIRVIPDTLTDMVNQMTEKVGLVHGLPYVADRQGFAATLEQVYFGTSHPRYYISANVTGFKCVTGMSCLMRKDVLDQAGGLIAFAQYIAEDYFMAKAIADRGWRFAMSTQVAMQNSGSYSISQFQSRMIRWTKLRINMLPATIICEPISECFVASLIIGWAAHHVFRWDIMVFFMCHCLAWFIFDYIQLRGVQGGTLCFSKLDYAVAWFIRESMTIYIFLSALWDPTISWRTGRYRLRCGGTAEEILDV
Procedure: Using Promega s UDP-Glo Glycosyltransferase assay kit (Promega Corporation, Madison, WI, USA (Promega)), GCS activity was indirectly measured by detecting the amount of UDP produced. An aliquot of GCS enzyme (1.5 µg crude golgi preparation, total protein) and titrated test compound were aliquoted to each well and incubated for 30 minutes at room temperature. […] An equivalent volume of substrate mixture was then added to each well. Following a 20 h incubation at room temperature to allow for GCS turnover of substrate, an equal volume of UDP detection reagent (Promega) was added to each well and incubated for an additional 75 minutes at room temperature to simultaneously convert the accumulated UDP product into ATP and generate light in a luciferase reaction. The generated light was detected using a luminometer. […] luminescence values (RLUs) were normalized to mean min and max effects, as determined on each plate. […] See Levenberg, K., A Method for the Solution of Certain Problems in Least Squares , Quart. Appl.

EC50 [nM]	SMILES
2.8	COc1cc(Cl)cc(-c2cccc3c2C(=O)N([C@H](C2CC2)C(C)(C)O)C3)c1 [WO2022115301, Example 10]
0.93	Cn1cc(-c2ccc(-c3cc(F)cc4c3C(=O)N([C@H](C3CC3)C(C)(C)O)C4)cc2)cn1 [WO2022115301, Example 24]
6.4	Cn1cc(-c2ccc(-c3cccc4c3C(=O)N([C@H](C3CC3)C(C)(C)O)C4)cc2)cn1 [WO2022115301, Example 15]
39	CC(C)(O)[C@@H](C1CC1)N1Cc2cccc(-c3cccc4c3OC(F)(F)O4)c2C1=O [WO2022115301, Example 16]
24	Cc1nnc(-c2ccc(-c3cccc4c3C(=O)N([C@H](C3CC3)C(C)(C)O)C4)cc2F)o1 [WO2022115301, Example 9]
580	CC(C)(O)[C@@H](C1CC1)N1Cc2cccc(-c3ccc(-n4nccn4)cc3)c2C1=O [WO2022115301, Example 17]
13	Cn1ncc2cc(-c3cccc4c3C(=O)N([C@H](C3CC3)C(C)(C)O)C4)ccc21 [WO2022115301, Example 12]
9.2	CN1Cc2cc(-c3cc(F)cc4c3C(=O)N([C@H](C3CC3)C(C)(C)O)C4)ccc2C1=O [WO2022115301, Example 25]
3.6	CC(C)(O)[C@@H](C1CC1)N1Cc2cccc(-c3ccccc3OCC(F)(F)F)c2C1=O [WO2022115301, Example 7]
4.9	Cc1n[nH]c2cc(F)c(-c3cccc4c3C(=O)N([C@H](C3CC3)C(C)(C)O)C4)cc12 [WO2022115301, Example 11]
48	CC(C)(O)[C@@H](C1CC1)N1Cc2cccc(-c3cccc(OCC(F)(F)F)c3)c2C1=O [WO2022115301, Example 14]
52	CC(C)(O)[C@@H](C1CC1)N1Cc2cccc(-c3ccc(-c4nnco4)cc3)c2C1=O [WO2022115301, Example 5]
7.5	COc1cc(C#N)cc(-c2cccc3c2C(=O)N([C@H](C2CC2)C(C)(C)O)C3)c1 [WO2022115301, Example 8]
4.5	Cn1c(=O)n(C)c2cc(-c3cccc4c3C(=O)N([C@H](C3CC3)C(C)(C)O)C4)ccc21 [WO2022115301, Example 6]
